# Measurements from the supplement of paper PMC10307832.
# Experiments:
# Test in all cases: relative viability (nuclei count vs DMSO), 5 days (fraction); higher = more cells survive
# [1] = compound: O=c1[nH]cc(F)c(=O)[nH]1 [5-Fluorouracil] + CS(=O)(=O)CCNCc1ccc(-c2ccc3ncnc(Nc4ccc(OCc5cccc(F)c5)c(Cl)c4)c3c2)o1 [Lapatinib] (partner 2 µM)
# In short: (§1)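 Relative viability divides the nuclei count in treated wells by that in vehicle wells. Lung cancer cell lines were seeded in 1536-well plates, dosed by pin tool the next day, and fixed and stained after 5 days in one step with final 0.05% Triton X-100, 1% formaldehyde and 1 ug/ml Hoechst. Dosing was a single drug or a fixed anchor-drug dose plus five library-drug doses (not always all listed) in √10 steps, and values are medians of duplicate plates imaged at 4×.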
# [2] = compound: CN[C@@H]1C[C@H]2O[C@@](C)([C@@H]1OC)n1c3ccccc3c3c4c(c5c6ccccc6n2c5c31)C(=O)NC4 [Staurosporine] + CCNC(=O)c1noc(-c2cc(C(C)C)c(O)cc2O)c1-c1ccc(CN2CCOCC2)cc1 [Luminespib] (partner 0.01 µM)
# In short: as §1
# Staurosporine + Olaparib = compound: CN[C@@H]1C[C@H]2O[C@@](C)([C@@H]1OC)n1c3ccccc3c3c4c(c5c6ccccc6n2c5c31)C(=O)NC4 [Staurosporine] + O=C(c1cc(Cc2n[nH]c(=O)c3ccccc23)ccc1F)N1CCN(C(=O)C2CC2)CC1 [Olaparib] (partner 8 µM)
# In short: as §1
# [3] = compound: O=c1[nH]cc(F)c(=O)[nH]1 [5-Fluorouracil] + Nc1ncn([C@H]2C[C@H](O)[C@@H](CO)O2)c(=O)n1 [Decitabine] (partner 2 µM)
# In short: as §1
Cell Line,relative viability ([1]; first compound 0.02 µM),relative viability ([1]; first compound 0.2 µM),relative viability ([1]; first compound 0.6325 µM),relative viability ([1]; first compound 2 µM),relative viability ([2]; first compound 0.005 µM),relative viability ([2]; first compound 0.01581 µM),relative viability ([2]; first compound 0.05 µM),relative viability ([2]; first compound 0.1581 µM),relative viability ([2]; first compound 0.5 µM),relative viability (Staurosporine + Olaparib; first compound 0.005 µM),relative viability (Staurosporine + Olaparib; first compound 0.01581 µM),relative viability (Staurosporine + Olaparib; first compound 0.05 µM),relative viability (Staurosporine + Olaparib; first compound 0.1581 µM),relative viability (Staurosporine + Olaparib; first compound 0.5 µM),relative viability ([3]; first compound 0.02 µM),relative viability ([3]; first compound 0.2 µM),relative viability ([3]; first compound 0.6325 µM),relative viability ([3]; first compound 2 µM)
HOP-62,0.797,1.03,0.986,0.956,0.949,0.426,0.189,0.134,0.109,0.441,0.157,0.0992,0.143,0.104,0.247,0.211,0.256,0.246
IA-LM,0.812,0.461,0.293,0.352,,,,,,0.562,0.51,0.412,0.215,0.0689,,,,
LC-2-ad,1.05,0.975,0.255,0.264,0.976,0.41,0.341,0.219,0.185,0.684,0.546,0.483,0.154,0.0646,0.806,0.725,0.561,0.417
LCLC-97TM1,0.693,0.857,0.617,0.272,0.829,0.416,0.338,0.268,0.221,0.42,0.12,0.194,0.236,0.191,0.242,0.269,0.207,0.201
LCLC-103H,,,,,0.8,0.369,0.157,0.18,0.177,0.851,0.477,0.403,0.247,,0.734,0.636,0.652,0.524
LK-2,1.17,1.08,0.697,0.535,0.202,,0.187,0.153,0.172,,0.432,0.518,0.289,0.0843,0.328,0.341,0.334,0.269
LOU-NH91,0.777,0.83,0.497,0.406,0.355,0.279,0.209,0.289,0.212,0.816,0.577,0.572,0.344,0.246,0.873,0.874,0.838,0.534
LU99A,1.03,1.03,0.77,0.551,0.21,0.176,0.134,0.137,0.123,0.228,0.164,0.141,0.138,0.121,0.898,0.898,0.731,0.483
LXF-289,0.897,0.782,0.333,0.285,0.584,0.13,0.246,0.0904,0.0899,1.1,0.193,0.395,0.164,0.227,0.384,0.402,0.34,0.323
NCI-H23,1.11,1.09,0.545,0.268,0.215,0.204,0.181,0.163,0.156,0.232,0.138,0.183,0.135,0.102,0.33,0.295,0.367,0.279
NCI-H322M,0.615,0.598,0.559,0.467,0.631,,0.259,0.274,0.182,0.831,0.691,0.556,0.411,0.345,0.638,0.616,0.774,0.676
NCI-H358,0.509,0.508,0.435,0.352,0.563,0.198,0.359,0.167,0.0923,0.519,0.403,0.0954,0.0798,0.058,0.187,0.224,0.214,0.225
NCI-H441,,,,,0.36,0.216,0.195,0.231,0.148,0.352,0.319,0.205,0.176,0.115,0.252,0.226,0.254,0.26
NCI-H522,,,,,1.2,1.14,0.719,0.758,0.751,0.669,0.685,0.53,0.471,0.429,0.642,0.58,0.622,0.722
NCI-H1299,1.05,0.978,0.959,0.817,,,,,,0.493,0.263,0.251,0.117,,,,,
NCI-H1563,0.769,0.942,0.975,0.74,0.54,0.481,0.504,0.446,0.408,,,,,,,,,
NCI-H1623,,,,,0.55,0.531,0.401,0.419,0.296,,,,,,,,,
NCI-H1648,,,,,,,,,,0.893,0.376,0.311,0.257,0.259,0.541,0.528,0.47,0.371
NCI-H1703,1.23,1.44,1.09,0.556,,,,,,0.269,0.165,0.237,0.112,0.106,,,,
NCI-H2228,1.13,1.06,0.687,0.505,0.0928,0.122,0.0907,0.0947,0.0857,0.375,0.211,0.18,0.0961,0.0588,,,,
NCI-H2342,,,,,0.843,0.69,0.49,0.47,0.334,0.436,0.315,0.363,0.398,0.394,0.726,0.682,0.698,0.739
SW 900,,,,,0.164,0.149,0.134,0.14,0.161,0.544,0.428,0.362,0.212,0.169,0.415,0.362,0.407,0.431
